Molecules are shown by their SMILES.

For assay [1], the system named is HCC1806-XRCC1 KD (knock down) cells. As to the kind of experiment: Cellular viability assay (Cell Titer-Glo). It is filed as cell-based. The conditions noted are these: 96 h, HCC1806-shXRCC1 cells, 4 days of incubation, read-out: PARGi cell viability. An outline of the steps:
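XRCC1-knockdown HCC1806 cells seeded 24 h before dosing; 9-point 1:3 dilution from 30 μM top concentration, duplicates, 4-day incubation. Viability by CellTiter-Glo luminescence, normalized to DMSO wells as % of control; curves fit with 4-parameter inhibition model.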
For orientation: Cellular ATP, detected with luciferase, serves as a proxy for viable cell number.

Assay [2] concerns the target T1, PARG (Homo sapiens, UniProt Q86W56). Kind of assay: Inhibition of PARG enzymatic assay (TR-FRET enzymatic IC50 assay). It is filed as biochemical. On the set-up: purchased Peak Proteins. The conditions noted are these: hPARG 250 pM, biotinylated-PARylated PARP substrate 30 nM. An outline of the steps: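 Compound preincubated 1 h with 250 pM His-tagged hPARG, then 30 nM biotinylated PARylated hPARP1 substrate added for 10 min; buffer 50 mM Tris-HCl pH 7.4, EDTA/EGTA, 1 mM DTT, 23° C. TR-FRET read after 1 h with anti-His ULight antibody and streptavidin-europium; inhibition scaled between DMSO and no-enzyme controls.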
(In general: In TR-FRET formats the signal depends on donor and acceptor labels being close together.)

Assay [3] deals with T1, PARG. As to the kind of experiment: Inhibition of PARG cellular assay (PAR foci in HeLa cells after MMS). It counts as cell-based. On the set-up: endogenous in cells; host or cells: HeLa. The conditions noted are these: compound 1 h then MMS 1 h. An outline of the steps: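 HeLa cells pretreated with compound for 1 h, then given MMS for a further 1 h, fixed and immunostained for PAR polymer. High-content imaging quantified nuclear PAR foci intensity (PAR Foci IC50) and percent cells with foci signal >1.3 (PAR % positive IC50).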

T1 sequence (Q86W56 whole entry): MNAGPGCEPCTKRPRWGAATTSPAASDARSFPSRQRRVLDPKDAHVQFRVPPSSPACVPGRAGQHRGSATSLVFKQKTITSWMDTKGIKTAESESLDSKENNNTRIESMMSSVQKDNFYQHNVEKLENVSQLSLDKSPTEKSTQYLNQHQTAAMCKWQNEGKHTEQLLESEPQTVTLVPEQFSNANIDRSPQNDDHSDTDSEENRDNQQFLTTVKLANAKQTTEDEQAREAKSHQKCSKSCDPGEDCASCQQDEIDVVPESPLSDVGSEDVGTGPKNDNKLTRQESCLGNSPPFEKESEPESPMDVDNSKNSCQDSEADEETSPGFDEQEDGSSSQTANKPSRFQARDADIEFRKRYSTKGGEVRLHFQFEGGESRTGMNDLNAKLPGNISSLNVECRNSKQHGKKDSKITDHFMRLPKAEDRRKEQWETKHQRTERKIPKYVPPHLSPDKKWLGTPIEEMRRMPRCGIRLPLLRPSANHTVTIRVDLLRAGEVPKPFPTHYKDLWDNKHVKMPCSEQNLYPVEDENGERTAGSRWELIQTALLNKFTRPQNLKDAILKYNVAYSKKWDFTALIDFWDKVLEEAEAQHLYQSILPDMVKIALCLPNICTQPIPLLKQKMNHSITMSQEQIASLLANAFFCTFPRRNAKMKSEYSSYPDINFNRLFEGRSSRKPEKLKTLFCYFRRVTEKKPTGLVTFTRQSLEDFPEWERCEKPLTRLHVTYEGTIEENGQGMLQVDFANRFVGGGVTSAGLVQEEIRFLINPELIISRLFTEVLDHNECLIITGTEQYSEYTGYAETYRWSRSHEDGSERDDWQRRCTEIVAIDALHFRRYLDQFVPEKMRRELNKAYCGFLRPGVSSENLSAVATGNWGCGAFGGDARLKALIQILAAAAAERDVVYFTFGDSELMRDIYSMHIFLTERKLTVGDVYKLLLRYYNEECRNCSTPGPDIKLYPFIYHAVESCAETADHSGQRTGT

Regarding `CC1(C(=O)N2CCN(c3cc(S(=O)(=O)NC4(C#N)CC4)cc4c3cnn4-c3nnc(C(F)F)s3)CC2)CC1` [Example 111, 1-{[(1-[5-(difluoromethyl)(1,3,4-thiadiazol-2-yl)]-4-{4-[(methylcyclopropyl)carbonyl]piperazinyl}-1H-indazol-6-yl)sulfonyl]amino}cyclopropanecarbonitrile], the IC50 was less than 1000 nM in assay [1], no more than 100 nM against PARG [2] and no more than 100 nM at PARG [3].
In the case of `CC1(C(=O)N2CCN(c3cc(S(=O)(=O)NC4(C#N)CC4)cc4c3cnn4-c3nnc(C(F)F)s3)CC2)CCC1` [Example 112, 1-{[(1-[5-(difluoromethyl)(1,3,4-thiadiazol-2-yl)]-4-{4-[(methylcyclobutyl)carbonyl]piperazinyl}-1H-indazol-6-yl)sulfonyl]amino}cyclopropanecarbonitrile], the IC50 in assay [1] is less than 1000 nM; against PARG [2], no more than 100 nM; at PARG [3], no more than 100 nM.
Turning to `CCC(C)C(=O)N1CCN(c2cc(S(=O)(=O)NC3(C#N)CC3)cc3c2cnn3-c2nnc(C(F)F)s2)CC1` (stereo not drawn) [Example 113, 1-[({1-[5-(difluoromethyl)(1,3,4-thiadiazol-2-yl)]-4-[4-(2-methylbutanoyl)piperazinyl]-1H-indazol-6-yl}sulfonyl)amino]cyclopropanecarbonitrile], the IC50 in assay [1] is less than 1000 nM; against PARG [2], no more than 100 nM; at PARG [3], no more than 100 nM.
Take `N#CC1(NS(=O)(=O)c2cc(N3CCC4(CC3)COC4)c3c(Cl)nn(-c4nnc(C(F)F)s4)c3c2)CC1` [Example 114, 1-[({1-[5-(difluoromethyl)(1,3,4-thiadiazol-2-yl)]-3-chloro-4-(2-oxa-7-azaspiro[3.5]non-7-yl)-1H-indazol-6-yl}sulfonyl)amino]cyclopropanecarbonitrile]: the values for the IC50 (in assay [1]; at PARG [2]; on PARG [3]) were 10000 to 20000 nM, 1000 to 10000 nM and 300 to 1000 nM, respectively.
As to `CN(C)C(=O)N1CCN(c2cc(S(=O)(=O)NC3(C#N)CC3)cc3c2c(Cl)nn3-c2nnc(C(F)F)s2)CC1` [Example 115, [4-(1-[5-(difluoromethyl)(1,3,4-thiadiazol-2-yl)]-3-chloro-6-{[(cyanocyclopropyl)-amino]sulfonyl}(1H-indazol-4-yl))piperazinyl]-N,N-dimethylcarboxamide], the IC50 fell in the range of 10000 to 20000 nM in assay [1], 300 to 1000 nM at PARG [2] and 300 to 1000 nM against PARG [3].

The values are drawn from patent US20220389003A1, “4-SUBSTITUTED INDOLE AND INDAZOLE SULFONAMIDO DERIVATIVES AS PARG INHIBITORS” (IDEAYA BIOSCIENCES, INC., priority 2019, published 2022).
